Data taken from patent publication US20040192641A1, “Special preparation of anticancer drugs made by novel nanotechnology” (priority 2003, published 2004).

Tests used:
S180 = assay: Growth of transplanted tumor, S180 (tumor weight); assay type: in vivo, mice; conditions: 20 mg/kg i.p. from second day, tumor weight on 12th day
Experimental: (§1) Male mice, weight 20-22 g, were used in the experiment. 1×10^7 tumor cells were injected to mouse and PK-HHT-NP injected intraperitoneally began second day. All mice were sacrificed on the 12th days, isolated the tumor and weighed and calculated the inhibition rate of tumor weight.
(§2) Male mice, weight 20-22 g, were used in the experiment. 1×10^7 tumor cells were injected to mouse and CUR and PK-CUR-NP injected intraperitoneally began second day. All mice were sacrificed on the 12th days, isolated the tumor and weighed and calculated the inhibition rate of tumor weight.
(§3) Male mice, weight 20-22 g, were used in the experiment. 1×10^7 tumor cells were injected to mouse and ELE injected intraperitoneally began second day. All mice were sacrificed on the 12th days, isolated the tumor and weighed and calculated the inhibition rate of tumor weight.
(§4) Male mice, weight 20-22 g, were used in the experiment. 1×10^7 tumor cells were injected to mouse and CPT injected intraperitoneally began second day. All mice were sacrificed on the 12th days, isolated the tumor and weighed and calculated the inhibition rate of tumor weight.

HL-60 = assay: Inhibition of tumor cell proliferation, HL-60; assay type: cell-based, human; conditions: for Inhibition (%): 72 hours
Experimental: Human leukemia cells (HL-60) were grown in RPMI Medium 1640 supplemented with 10% (v/v) heat-inactivated FBS (56° C. for 30 min) at 37° C. in a humidified 95% air/5% CO2 atmosphere. Cells were seeded at a level of 2×10^5 cells/ml. Cells were allowed to attain a maximum density of 1.2×10^6 cells/ml before being passed by dilution into fresh medium to a concentration of 2×10^5 cells/ml.
Cell lines were routinely cultured in the RPMI1640 medium supplemented 20% fetal calf serum. The experiment was carried out in 96 microplate, each well had 5×10^5 cells and given desired concentration of drug (1 μg/ml). Then the plate was incubated at 37° C. in an atmosphere of humidified air enriched with 5 percent carbon dioxide for 72 hours. Inhibition percent rate of tumor cell proliferation was obtained according to the bellow formula. [formula]
Human tumor cell lines: Hela leukemia HL-60, malignant melanocarcinoma B16, oral epidermoid carcinoma (KB), lung carcinoma (A549), breast carcinoma MCF-7, adenocarcinoma of stomach.
Animal tumor cell lines: Walker carcinoma, LLC-WRC-256, malignant melanoma (RMMI 1846), 3T3, and S-180 sarcoma (CCRF-180). All lines were routinely cultured in the RPMI1640 medium supplemented 20% fetal calf serum. The experiment was carried out in 96 microplate, each well had 5×10^5 cells and given desired concentration of 1 μg/ml (1×10^−6 g/ml) drug. Then the plate was incubated at 37° C. in an atmosphere of humidified air enriched with 5 percent carbon dioxide for 72 hours.
Inhibition percent rate of tumor cell proliferation was obtained according to the bellow formula. [formula] […]

[1] = test system: NNK-induced lung tumorigenesis (pulmonary adenomas); assay: NNK-induced lung tumorigenesis; assay type: in vivo, mice; conditions: 20 mg/kg daily by injection; 10 μmol NNK i.p.; sixteen weeks
Experimental: The capacity of tobacco-specific nitrosamine 4-(methylnitrosamino)-1-(3-pyridyl)-1-butanone (NNK) to induce tumor incidence was recognized.
(§5) Every group had 20 mice. For treatment group, each mouse was gave free CUR and PK-CUR-NP by injection at dose of 20 mg/kg daily. For control group, each mouse was gave same volume of physiological saline. Three days later, mice were gave 10 μmol NNK (in 0.1 ml saline) by i.p. injection. Sixteen weeks after these treatments the mice were killed and pulmonary adenomas were counted. The statistical significance of bioassay data was determined by student's test.
as §5, with “ELE” for “free CUR”, “PK-ELE-NP” for “PK-CUR-NP”
as §5, with “CPT” for “CUR”, “PK-CPT-NP” for “PK-CUR-NP”

Lewis = assay: Growth of transplanted tumor, Lewis (tumor weight); assay type: in vivo, mice; conditions: 20 mg/kg i.p. from second day, tumor weight on 12th day
Experimental: as §1, §2, §3, §4

Compound	Inhibition (%) of transplanted tumor (S180) [%]	inhibition at 0.05 µg/mL (HL-60; Homo sapiens, HL-60, 72 h, 50 ng/ml) [%]	Tumor incidence (%) [1] [%]	Inhibition (%) of transplanted tumor (Lewis) [%]	Inhibition (%) (HL-60; 50 ng/ml)	inhibition at 1 µg/mL (HL-60; Homo sapiens, HL-60, 72 h, 1 μg/ml) [%]	inhibition at 1 µg/mL (HL-60; Homo sapiens, HL-60, 72 h, Example 23, 1 μg/ml, NP dose equivalent of free HHT) [%]
CC[C@@]1(O)C(=O)OCc2c1cc1n(c2=O)Cc2cc3ccccc3nc2-1 [CPT, Camptothecin]	63.2 ± 12.1	70.8 ± 11.2	36.2 ± 6.2	60.8 ± 10.4	–	–	–
C=C1C[C@@]2(O)O[C@@]3(C[C@H]2C(C)C)[C@@H](C)CC[C@@H]13 [CUR, Curcumol]	63.7 ± 7.3	–	35.8 ± 5.8	68.9 ± 7.8	76.8 ± 12.8	–	–
COC(=O)C[C@](O)(CCCC(C)(C)O)C(=O)O[C@@H]1C(OC)=C[C@]23CCCN2CCc2cc4c(cc2[C@H]13)OCO4 [HHT, Homoharringtonine]	76 ± 8	–	–	70 ± 6	–	70.8 ± 9	70.5 ± 8
Eelemene	67.57 ± 9.1	–	34.8 ± 6.2	65.8 ± 10.5	78.9 ± 12.5	–	–
